Measurements: PubChem BioAssay (NCI)
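Growth conditions: 96-well plates. Treatment: test compound, 48 hours, 5 concentrations. Analysis: linear interpolation between bracketing concentrations; unreached endpoints set to highest concentration. GI50 marks 50% less growth. At the TGI there is no net growth.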

Experiments:
Test in all cases: NCI tumour cell line growth inhibition, 48 h
[1] = tested on: SK-MEL-2 melanoma
[2] = tested on: HCT-116 colon
[3] = tested on: HT29 colon
[4] = tested on: UO-31 renal
[5] = tested on: OVCAR-4 ovarian
[6] = tested on: OVCAR-8 ovarian
[7] = tested on: HCT-15 colon
[8] = tested on: ACHN renal
[9] = tested on: 786-0 renal
[10] = tested on: SF-295 CNS

With Cc1cc(O)c(/C=N/C(=S)NCc2ccccc2)c(=O)o1 the TGI [1] was greater than 100 µM, the TGI [2] was greater than 100 µM and the TGI [3] was greater than 100 µM. For the same compound, the TGI [4] was greater than 100 µM, the TGI [5] was greater than 100 µM and the TGI [6] was greater than 100 µM. The TGI [7] was greater than 100 µM, the TGI [8] was greater than 100 µM and the TGI [9] was greater than 100 µM. It also gave a TGI [10] greater than 100 µM.
CCOC(=O)C(=C=C=C(c1ccccc1)c1ccccc1)C(=O)OCC showed a TGI [1] of 36.9 µM, a TGI [2] of 38.6 µM and a TGI [3] of 41.7 µM. The TGI [4] was 34.1 µM, the TGI [5] was 33.7 µM and the TGI [6] was 50.3 µM. For the same compound, the TGI [7] was 49.1 µM, the TGI [8] was 36.7 µM and the TGI [9] was 32 µM. The TGI [10] was 30.6 µM.
COc1ccc(-c2nnc(COc3ccc(NC(=O)Nc4cc(C(F)(F)F)cc(C(F)(F)F)c4)cc3F)o2)cc1 was tested, and the GI50 [1] was 2.66 µM, the TGI [1] was 5.82 µM and the GI50 [2] was 1.63 µM. For the same compound, the TGI [2] was 3.98 µM, the GI50 [3] was 2.21 µM and the TGI [3] was 4.74 µM. For the same compound, the GI50 [4] was 2.09 µM, the TGI [4] was 7.84 µM and the GI50 [5] was 2.29 µM. For the same compound, the TGI [5] was 8.53 µM, the GI50 [6] was 1.89 µM and the TGI [6] was 5.85 µM. For the same compound, the GI50 [7] was 2.01 µM, the TGI [7] was 6.06 µM and the GI50 [8] was 2.54 µM. It also gave a TGI [8] of 10.1 µM, a GI50 [9] of 2.2 µM and a TGI [9] of 4.7 µM. The GI50 [10] was 2.11 µM and the TGI [10] was 5.21 µM.
C/C(=N\NC(=S)NC(CCC(=O)O)C(=O)O)c1ccccn1 (stereo not given) gave a TGI [1] greater than 100 µM, a TGI [2] greater than 100 µM and a TGI [3] greater than 100 µM. It also gave a TGI [4] greater than 100 µM, a TGI [5] greater than 100 µM and a TGI [6] greater than 100 µM. It also gave a TGI [7] greater than 100 µM, a TGI [8] greater than 100 µM and a TGI [9] greater than 100 µM. The TGI [10] was greater than 100 µM.
Compound Cc1ccccc1S(=O)(=O)OC1NS(=O)(=O)c2ccccc21 (stereo not given) has a TGI [1] greater than 100 µM, a TGI [2] greater than 100 µM and a TGI [3] greater than 100 µM. For the same compound, the TGI [4] was greater than 100 µM, the TGI [5] was greater than 100 µM and the TGI [6] was greater than 100 µM. The TGI [7] was greater than 100 µM, the TGI [8] was greater than 100 µM and the TGI [9] was greater than 100 µM. For the same compound, the TGI [10] was greater than 100 µM.
For CC(C)=Cc1cc(C(=O)Nc2ccc(Cl)c(Cl)c2)nc(N)n1, the TGI [1] was greater than 100 µM, the TGI [2] was greater than 100 µM and the TGI [3] was greater than 100 µM. The TGI [4] was greater than 100 µM, the TGI [5] was greater than 100 µM and the TGI [6] was greater than 100 µM. The TGI [7] was greater than 100 µM, the TGI [8] was greater than 100 µM and the TGI [9] was greater than 100 µM. It also gave a TGI [10] greater than 100 µM.
CCOC(=O)NC(=O)c1cn(CCCO)c(=O)[nH]c1=O showed a TGI [1] greater than 100 µM, a TGI [2] greater than 100 µM and a TGI [3] greater than 100 µM. For the same compound, the TGI [4] was greater than 100 µM, the TGI [5] was greater than 100 µM and the TGI [6] was greater than 100 µM. It also gave a TGI [7] greater than 100 µM, a TGI [8] greater than 100 µM and a TGI [9] greater than 100 µM. For the same compound, the TGI [10] was greater than 100 µM.
In the case of O=C(CCc1nnc2sc(-c3ccc(Cl)cc3Cl)nn12)c1nc2ncccc2[nH]1, the GI50 [1] is reported as 2.59 µM, the TGI [1] is reported as 7.27 µM and the GI50 [2] is reported as 1.3 µM. The TGI [2] was 2.65 µM, the GI50 [3] was 2.93 µM and the TGI [3] was 11.8 µM. It also gave a GI50 [4] of 1.13 µM, a TGI [4] of 2.33 µM and a GI50 [5] of 1.92 µM. For the same compound, the TGI [5] was 4.26 µM, the GI50 [6] was 3.44 µM and the TGI [6] was greater than 100 µM. It also gave a GI50 [7] of 1.64 µM, a TGI [7] of 4.61 µM and a GI50 [8] of 1.54 µM. The TGI [8] was 2.91 µM, the GI50 [9] was 1.81 µM and the TGI [9] was 3.53 µM. The GI50 [10] was 1.83 µM and the TGI [10] was 3.44 µM.
COc1ccc(-c2nnc(COc3ccc(C(=O)/C=C/c4ccco4)cc3)o2)cc1 was tested, and the GI50 [1] was 13.9 µM, the TGI [1] was 27.7 µM and the GI50 [2] was 1.82 µM. For the same compound, the TGI [2] was 3.36 µM, the GI50 [3] was 1.91 µM and the TGI [3] was 3.61 µM. For the same compound, the GI50 [4] was 2.32 µM, the TGI [4] was 6.69 µM and the GI50 [5] was 12.8 µM. The TGI [5] was 26.6 µM, the GI50 [6] was 3.04 µM and the TGI [6] was 10.1 µM. It also gave a GI50 [7] of 1.8 µM, a TGI [7] of 4.25 µM and a GI50 [8] of 2.12 µM. The TGI [8] was 5.03 µM, the GI50 [9] was 1.89 µM and the TGI [9] was 3.65 µM. The GI50 [10] was 3.75 µM and the TGI [10] was 14.7 µM.
